In assay [1] the test system is chromosomal DNA in the nucleic acid existing inside of the living bacteria (E. coli). Kind of assay: Influence of EMA plus visible light on nucleic acid inside living E. coli (in vivo; agarose gel electrophoresis), chromosomal DNA band. It is filed as cell-based. The note with it: living E. coli/DH5α suspension, visible light 500 W halogen bulb 20 min. The procedure: (§1) EMA was dissolved in sterile water to prepare 1000 μg/ml EMA solution. The solution was filtrated for sterilization through a 0.2 μm filter (Minisart-plus; manufactured by Sartorius AG). The EMA solution was added so that the final concentration of EMA become 0 (no addition), 0.01, 0.1, 1, 10, and 100 μg/ml with respect to 1 ml of 1.0×10^6CFU/ml living bacterial suspension of E. coli/DH5α strain, followed by leaving standing at 4° C. for 1 hour.
(§2) Subsequently, at a distance of 20 cm from the above living bacterial suspension on ice, the sample was irradiated for 20 minutes with visible light from a 500 W halogen bulb (FLOOD PRF 100V 500 W; Iwasaki Electric Co., Ltd., Tokyo). […]
(§3) Each of the treated solution was divided into two equal volumes and dispensed into two 2 ml micro tubes, respectively. […] The concentration of the purified nucleic acid solution was determined based on the absorbance at UV260 nm (50 μg/ml of the nucleic acid was defined as OD=1, cell length=1 cm:OD260). The purity of the purified nucliec acid was calculated by dividing OD260 with OD280.
(§4) Each of the nucleic acid solutions was prepared at 175 ng/μl and 4 μl of each was then electrophoresed on 0.7% agarose gel. λ-EcoT14 I digest (manufactured by Takara Bio Inc.) was used as a molecular weight marker. […] The resulting image was recorded on the Polaroid film 667. […]

Assay [2] has as its system E. coli chromosomal DNA. Kind of assay: Influence of EMA plus visible light on isolated E. coli nucleic acid in vitro (agarose gel electrophoresis), chromosomal DNA band. It is filed as biochemical. The note with it: visible light 500 W halogen bulb 20 min. As for the experimental part:
(§5) b 1 ml living bacterial suspension of 1.0×10^6 CFU/ml of E. coli/DH5α strain was subjected to centrifugation under a cool condition. After removal of the supernatant, the resulting pellet was added with 0.5 ml of 10 mM Tris-HCl buffer solution (pH 8.0) and further added with 10 μl of 1250U/ml protease K solution and 200 μl of 10% SDS solution, followed by overnight bacteriolysis at 50° C.
(§6) Subsequently, each of the treated solution was divided into two equal volumes and dispensed into two 2 ml micro tubes, respectively. Each of them was added with 0.5 ml of saturated phenol solution, then gently mixed for 15 minutes, and then added with 0.5 ml of chloroform, followed by gently mixing for 5 minutes. After that, the mixture was centrifuged at 6,000×g at 4° C. for 10 minutes. An aqueous phase, an upper layer, was transferred into an another 2 ml microtube and then added with 70 μl of 3M sodium acetate (pH 5.2) and 1.21 ml of 99.5% cold ethanol, followed by gentle mixing. […] The concentration of the purified nucleic acid solution was determined based on the absorbance at UV260 nm (50 μg/ml of the nucleic acid was defined as OD=1, cell length=1 cm:OD260).
(§7) The nucleic acid solution thus prepared was adjusted to 175 ng/μl with sterile water and 4 μl aliquot of the nucleic acid solution was then added to each of microtubes. […] The resulting image was recorded on the Polaroid film 667. […]

The subject of assay [3] is rRNA (16SrRNA and 23SrRNA). The assay is described as follows: Influence of EMA plus visible light on isolated E. coli nucleic acid in vitro (agarose gel electrophoresis), rRNA bands. It is filed as biochemical. The note with it: visible light 500 W halogen bulb 20 min. As for the experimental part: as §5, §6, §7
For assay [4], the system named is rRNA (16SrRNA and 23SrRNA) of living bacteria (E. coli). Kind of assay: Influence of EMA plus visible light on nucleic acid inside living E. coli (in vivo; agarose gel electrophoresis), rRNA bands. It is filed as cell-based. Conditions: EMA 10 μg/ml; living E. coli/DH5α suspension; visible light 500 W halogen bulb 20 min. As for the experimental part: as §1, §2, §3, §4

Assay [5] concerns E. coli chromosomal DNA. The assay is described as follows: Electron microscopy of E. coli chromosomal DNA treated with EMA and visible light in vitro. In kind it is biochemical. Conditions: visible light 500 W halogen bulb 20 min. As for the experimental part:
Nucleic acid was extracted in a manner similar to Example 1 as described above. The nucleic acid was then dissolved in 9 ml of sterile water. A nucleic acid solution thus prepared was gently loaded on the top of 32 ml sucrose density gradient (16 ml of 10% sucrose solution and 16 ml of 40% sucrose solution were used) and then subjected to ultracentrifugation at 26,000 rpm at 20° C. for 18 hours with a swing rotor (manufactured by Hitachi Koki Co., Ltd.: RPS-27-2). After the centrifugation, a small hole was opened in the bottom of the sucrose density gradient solution and then fractionated every 1 ml.
After that, for each fraction, 3M sodiumacetate solution (pH 5.2) was added so as to be 10% (vol/vol). Then, 2-fold volume of 99.5% ethanol was added. Subsequently, the fraction was subjected to centrifugation at 15,000×g at 4° C. for 10 minutes to recover the pellet. Then, the pellet was washed with 70% ethanol and then dissolved in 100 μl of sterile water.
Among the samples obtained from the respective fraction solutions, a sample only containing a long chromosomal DNA with 48 kbp in agarose electrophoresis was further diluted with sterile water so as to be a DNA concentration of 175 ng/μl. Then 4 μl of each aqueous EMA solution (0, 0.02, 2, and 20 μg/ml) was added to 4 μl of the DNA solution and then left standing at 4° C. for 1 hour under light interception. […]

Assay [6] concerns E. coli/DH5α strain. The assay is described as follows: Antibacterial effect of EMA on living bacteria (number of living bacterial cells). In kind it is cell-based. The note with it: 1.0×10^6 CFU/ml E. coli/DH5α, visible light 500 W halogen bulb 20 min. The procedure: Ethidium monoazide (EMA) was dissolved in sterile water to prepare 1000 μg/ml EMA solution. The solution was filtrated through a 0.2 μm sterile filter (Minisart-plus; manufactured by Sartorius AG). The EMA solution was added so that the final concentration of EMA become 0 (no addition), 0.01, 0.1, 1, 10, and 100 μg/ml, respectively with respect to 1 ml of 1.0×10^6CFU/ml living bacterial suspension of E. coli/DH5α strain, followed by left standing at 4° C. for 1 hour under light interception.
Subsequently, at a distant of 20 cm from the above living bacterial suspension on ice, the sample was irradiated for 20 minutes with visible light from a 500 W halogen bulb (FLOOD PRF 100V 500 W; Iwasaki Electric Co., Ltd., Tokyo). The sample was subjected to centrifugation at 15,000×g at 4° C. for 10 minutes and the supernatant was then removed to eliminate a product generated by the reaction of water with the visible light irradiation product of EMA (hydroxyamino ethidium), which could not covalently bind to nucleic acid. The pellet was added with an equal amount of physiological saline solution and then serially diluted, followed by 24 hour incubation at 37° C. using an L-plate agar culture medium to determine the number of living bacterial cells.

Consider `CC[n+]1c(-c2ccccc2)c2cc(N=[N+]=[N-])ccc2c2ccc(N)cc21.[Cl-]` [EMA, 3-amino-8-azido-5-ethyl-6-phenyl-phenanthridinium chloride], for which the “intensity of the band originated from the chromosomal DNA of approximately 19,329 bps” value in assay [1] (EMA 10 μg/ml) is given as “gradually decreased”; in assay [1] (EMA 100 μg/ml), “significantly disappeared”; in assay [2] (EMA 100 ng/ml to 1 μg/ml), “gradually decreased”; in assay [2] (EMA 10 μg/ml), “significantly disappeared”. Moreover, the “band intensity of rRNA (16SrRNA and 23SrRNA)” value in assay [3] (EMA 1 μg/ml) was “decreased”; in assay [3] (EMA 10 μg/ml or more), “disappeared”; in assay [4], “decreased”. The “effect of cleaving the chromosomal DNA (electron microscopy)” value in assay [5] (EMA 0 to 0.01 μg/ml) is on record as “not observed”; in assay [5] (EMA 1 μg/ml or more) it was “caused the cleaving phenomenon of chromosomal DNA”. The “decrease in number of living bacterial cells in comparison with the original number” value in assay [6] (EMA 10 μg/ml) is recorded as ~10^2 CFU/ml; in assay [6] (EMA 100 μg/ml), ~10^5 CFU/ml.

Source of the values: patent publication US20100170777A1, “AGENT FOR DEGRADING A NUCLEIC ACID AND METHOD OF DEGRADING A NUCLEIC ACID” (Morinaga Milk Industry Co., Ltd., priority 2006, published 2010).
